Assay results published in US20240034723A1, “PIPERIDINYL SMALL MOLECULE DEGRADERS OF HELIOS AND METHODS OF USE” (DANA-FARBER CANCER INSTITUTE, INC., priority 2020, published 2024).

target: T1, IKZF2 (Helios) (Homo sapiens, UniProt Q96SW2+Q9UKS7); assay: MOLT4 IKZF2 HiBit assay protocol (Example 64); assay type: cell-based; conditions: MOLT4 IKZF2 HiBit cells, 10-point 30 μM to 1 nM; table title: after 6 hours of treatment (method: incubated 24 hours)
T1 construct: CRISPR/Cas-mediated insertion of the HiBiT peptide tag (Promega™) to the N-terminus of the IKZF2 gene locus; endogenous in cells; host or cells: MOLT4 cells, CRISPR/Cas knock-in of HiBiT at the endogenous IKZF2 locus
Description: This protocol uses MOLT4 cells that were engineered using CRISPR/Cas9-mediated genomic insertion of HiBit, tagged to the N terminus of the IKZF2 coding sequence. Day 1. Created a 10-point dose response starting from 30 μM down to 1 nM using a Tecan D300e. Next added 8,000 cells/well of the MOLT4 IKZF2 HiBit cells to the compound plate. […] Day 2. Added Nano-Glo® HiBit Lytic Buffer/Nano-Glo® HiBit Lytic substrate/LgBit Protein mix to each well and incubated for 15 minutes. Finally, read luminescence signal using a BMG Labtech PHERAstar® FSX. Data was normalized to DMSO and graphed using GraphPad Prism to determine the concentration points at which 50% of HiBiT-Helios degradation was achieved by each compound. The extent of degradation (range of luminescence) from the highest to lowest concentration points was calculated to determine Dmax.

T1 sequence (Q9UKS7 whole entry): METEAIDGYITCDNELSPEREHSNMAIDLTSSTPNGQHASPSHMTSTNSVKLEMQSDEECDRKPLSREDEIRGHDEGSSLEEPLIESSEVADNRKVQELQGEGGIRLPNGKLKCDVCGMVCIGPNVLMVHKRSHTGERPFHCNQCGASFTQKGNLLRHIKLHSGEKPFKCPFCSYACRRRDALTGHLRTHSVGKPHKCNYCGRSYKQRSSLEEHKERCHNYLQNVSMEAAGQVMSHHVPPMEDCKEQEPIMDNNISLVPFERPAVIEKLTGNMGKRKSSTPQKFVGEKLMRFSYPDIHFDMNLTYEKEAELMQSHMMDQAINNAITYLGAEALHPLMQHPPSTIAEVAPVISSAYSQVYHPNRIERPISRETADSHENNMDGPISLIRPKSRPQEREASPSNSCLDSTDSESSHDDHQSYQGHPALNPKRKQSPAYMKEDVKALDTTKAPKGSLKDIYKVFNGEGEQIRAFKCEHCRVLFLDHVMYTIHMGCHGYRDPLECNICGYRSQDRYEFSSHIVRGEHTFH
T1 sequence (Q96SW2 whole entry): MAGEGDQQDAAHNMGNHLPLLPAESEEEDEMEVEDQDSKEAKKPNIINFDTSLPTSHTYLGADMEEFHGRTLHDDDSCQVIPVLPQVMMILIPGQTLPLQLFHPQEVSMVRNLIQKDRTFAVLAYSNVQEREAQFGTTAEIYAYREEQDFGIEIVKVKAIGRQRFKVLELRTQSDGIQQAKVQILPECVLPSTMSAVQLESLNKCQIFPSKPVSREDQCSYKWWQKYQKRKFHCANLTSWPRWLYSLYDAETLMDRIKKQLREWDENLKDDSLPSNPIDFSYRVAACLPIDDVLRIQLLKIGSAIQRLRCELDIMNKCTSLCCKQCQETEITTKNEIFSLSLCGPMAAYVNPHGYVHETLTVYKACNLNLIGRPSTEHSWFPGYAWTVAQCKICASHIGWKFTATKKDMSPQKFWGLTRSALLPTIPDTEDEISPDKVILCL
T1 sequence (Q16531 whole entry partner): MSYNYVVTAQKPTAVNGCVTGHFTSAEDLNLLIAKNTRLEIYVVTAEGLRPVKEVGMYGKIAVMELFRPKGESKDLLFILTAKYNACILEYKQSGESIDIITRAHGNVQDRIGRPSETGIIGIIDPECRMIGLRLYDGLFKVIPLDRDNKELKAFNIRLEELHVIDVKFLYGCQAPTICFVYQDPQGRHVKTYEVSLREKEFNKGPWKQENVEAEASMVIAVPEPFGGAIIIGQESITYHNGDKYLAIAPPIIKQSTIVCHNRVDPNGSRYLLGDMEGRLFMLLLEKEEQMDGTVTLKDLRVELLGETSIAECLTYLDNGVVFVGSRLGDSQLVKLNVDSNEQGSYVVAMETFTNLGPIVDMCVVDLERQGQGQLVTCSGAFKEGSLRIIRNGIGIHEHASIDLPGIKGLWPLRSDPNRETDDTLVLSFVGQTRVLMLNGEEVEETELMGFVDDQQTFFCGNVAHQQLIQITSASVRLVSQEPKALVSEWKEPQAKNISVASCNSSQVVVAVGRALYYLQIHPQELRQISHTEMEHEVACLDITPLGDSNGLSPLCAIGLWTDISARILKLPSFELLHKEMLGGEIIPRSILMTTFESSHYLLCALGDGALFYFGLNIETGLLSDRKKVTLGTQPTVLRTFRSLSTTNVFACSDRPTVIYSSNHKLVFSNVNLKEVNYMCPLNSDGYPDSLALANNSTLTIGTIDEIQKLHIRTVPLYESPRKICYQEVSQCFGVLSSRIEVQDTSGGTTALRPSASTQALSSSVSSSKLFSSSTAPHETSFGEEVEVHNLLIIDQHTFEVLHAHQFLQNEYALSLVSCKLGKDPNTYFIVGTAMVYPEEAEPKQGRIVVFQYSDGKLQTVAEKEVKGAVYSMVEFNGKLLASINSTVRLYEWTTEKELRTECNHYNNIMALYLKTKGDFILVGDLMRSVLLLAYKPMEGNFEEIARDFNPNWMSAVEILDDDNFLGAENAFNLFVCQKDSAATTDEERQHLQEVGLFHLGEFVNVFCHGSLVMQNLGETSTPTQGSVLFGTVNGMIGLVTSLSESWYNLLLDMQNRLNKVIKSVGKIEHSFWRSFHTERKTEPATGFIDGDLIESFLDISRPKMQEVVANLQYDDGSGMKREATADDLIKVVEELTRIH

Row | Structure (SMILES) | DC50 [nM] | IKZF2 DC50 (M)
1 | N#Cc1cccc(-n2cnc3ccc(CN4CCC(c5ccc6c(c5)CN(C5CCC(=O)NC5=O)C6=O)CC4)cc3c2=O)c1 (stereo not drawn) [Compound 61, 3-(6-((4-(2-(2,6-dioxopiperidin-3-yl)-1-oxoisoindolin-5-yl)piperidin-1-yl)methyl)-4-oxoquinazolin-3(4H)-yl)benzonitrile] | 5 to 25 | 
2 | COc1cccc(-n2cnc3ccc(CN4CCC(c5ccc6c(c5)CN(C5CCC(=O)NC5=O)C6=O)CC4)cc3c2=O)n1 (stereo not drawn) [Compound 65, 3-(5-(1-((3-(6-methoxypyridin-2-yl)-4-oxo-3,4-dihydroquinazolin-6-yl)methyl)piperidin-4-yl)-1-oxoisoindolin-2-yl)piperidine-2,6-dione] | 5 to 25 | 
3 | Cc1nc2ccc(CN3CCC(c4ccc5c(c4)CN(C4CCC(=O)NC4=O)C5=O)CC3)cc2c(=O)n1-c1ccccc1 (stereo not drawn) [Compound 83, 3-(5-(1-((2-methyl-4-oxo-3-phenyl-3,4-dihydroquinazolin-6-yl)methyl)piperidin-4-yl)-1-oxoisoindolin-2-yl)piperidine-2,6-dione] | < 5 | 
4 | CC(C)c1cccc(-n2cnc3ccc(CN4CCC(c5ccc6c(c5)CN(C5CCC(=O)NC5=O)C6=O)CC4)cc3c2=O)n1 (stereo not drawn) [Compound 63, 3-(5-(1-((3-(6-isopropylpyridin-2-yl)-4-oxo-3,4-dihydroquinazolin-6-yl)methyl)piperidin-4-yl)-1-oxoisoindolin-2-yl)piperidine-2,6-dione] | 5 to 25 | 
5 | O=C1CCC(N2Cc3c(ccc(C4CCN(Cc5ccc6ncn(-c7cccnc7)c(=O)c6c5)CC4)c3F)C2=O)C(=O)N1 (stereo not drawn) [Compound 89, 3-(4-fluoro-1-oxo-5-(1-((4-oxo-3-(pyridin-3-yl)-3,4-dihydroquinazolin-6-yl)methyl)piperidin-4-yl)isoindolin-2-yl)piperidine-2,6-dione] | 5 to 25 | 
6 | Cc1nc2ccc(CN3CCC(c4ccc5c(c4)CN(C4CCC(=O)NC4=O)C5=O)CC3)cc2c(=O)n1-c1ccccn1 (stereo not drawn) [Compound 84, 3-(5-(1-((2-methyl-4-oxo-3-(pyridin-2-yl)-3,4-dihydroquinazolin-6-yl)methyl)piperidin-4-yl)-1-oxoisoindolin-2-yl)piperidine-2,6-dione] | < 5 | 
7 | O=C1CCC(N2Cc3cc(C4CCN(Cc5cn6cc(-c7cccnc7)ccc6n5)CC4)ccc3C2=O)C(=O)N1 (stereo not drawn) [Compound 97, 3-(1-oxo-5-(1-((6-(pyridin-3-yl)imidazo[1,2-a]pyridin-2-yl)methyl)piperidin-4-yl)isoindolin-2-yl)piperidine-2,6-dione] | 25 to 100 | 
8 | Cn1cc(-n2cnc3ccc(CN4CCC(c5ccc6c(c5)CN(C5CCC(=O)NC5=O)C6=O)CC4)cc3c2=O)cn1 (stereo not drawn) [Compound 82, 3-(5-(1-((3-(1-methyl-1H-pyrazol-4-yl)-4-oxo-3,4-dihydroquinazolin-6-yl)methyl)piperidin-4-yl)-1-oxoisoindolin-2-yl)piperidine-2,6-dione] | 5 to 25 | 
9 | O=C1CCC(N2Cc3cc(C4CCN(Cc5ccc6nc(-c7ccccc7)cn6c5)CC4)ccc3C2=O)C(=O)N1 (stereo not drawn) [Compound 54, 3-(1-oxo-5-(1-((2-phenylimidazo[1,2-a]pyridin-6-yl)methyl)piperidin-4-yl)isoindolin-2-yl)piperidine-2,6-dione] | < 5 | 
10 | O=C1CCC(N2Cc3cc(C4CCN(Cc5ccc6nc(-c7ccccc7)nn6c5)CC4)ccc3C2=O)C(=O)N1 (stereo not drawn) [Compound 55, 3-(1-oxo-5-(1-((2-phenyl-[1,2,4]triazolo[1,5-a]pyridin-6-yl)methyl)piperidin-4-yl)isoindolin-2-yl)piperidine-2,6-dione] | 25 to 100 | 
11 | O=C1CCC(N2Cc3cc(C4CCN(Cc5cn6cc(-c7ccccc7)ccc6n5)CC4)ccc3C2=O)C(=O)N1 (stereo not drawn) [Compound 96, 3-(1-oxo-5-(1-((6-phenylimidazo[1,2-a]pyridin-2-yl)methyl)piperidin-4-yl)isoindolin-2-yl)piperidine-2,6-dione] | 25 to 100 | 
12 | O=C1CCC(N2Cc3cc(C4CCN(Cc5cc6c(=O)n(-c7ccccn7)cnc6cc5F)CC4)ccc3C2=O)C(=O)N1 (stereo not drawn) [Compound 87, 3-(5-(1-((7-fluoro-4-oxo-3-(pyridin-2-yl)-3,4-dihydroquinazolin-6-yl)methyl)piperidin-4-yl)-1-oxoisoindolin-2-yl)piperidine-2,6-dione] | < 5 | 
13 | O=C1CCC(N2Cc3cc(C4CCN(Cc5ccc6ncn(-c7cccc(F)c7)c(=O)c6c5)CC4)ccc3C2=O)C(=O)N1 (stereo not drawn) [Compound 28, 3-(5-(1-((3-(3-fluorophenyl)-4-oxo-3,4-dihydroquinazolin-6-yl)methyl)piperidin-4-yl)-1-oxoisoindolin-2-yl)piperidine-2,6-dione] | 5 to 25 | 
14 | O=C1CCC(N2Cc3cc(C4CCN(Cc5cn6ccc(-c7cccnc7)cc6n5)CC4)ccc3C2=O)C(=O)N1 (stereo not drawn) [Compound 99, 3-(1-oxo-5-(1-((7-(pyridin-3-yl)imidazo[1,2-a]pyridin-2-yl)methyl)piperidin-4-yl)isoindolin-2-yl)piperidine-2,6-dione] | 25 to 100 | 
15 | Cc1cccc(-n2cnc3ccc(CN4CCC(c5ccc6c(c5)CN(C5CCC(=O)NC5=O)C6=O)CC4)cc3c2=O)n1 (stereo not drawn) [Compound 62, 3-(5-(1-((3-(6-methylpyridin-2-yl)-4-oxo-3,4-dihydroquinazolin-6-yl)methyl)piperidin-4-yl)-1-oxoisoindolin-2-yl)piperidine-2,6-dione] | 5 to 25 | 
16 | O=C1CCC(N2Cc3cc(C4CCN(Cc5ccc6ncn(-c7cccc(C(F)(F)F)n7)c(=O)c6c5)CC4)ccc3C2=O)C(=O)N1 (stereo not drawn) [Compound 64, 3-(1-oxo-5-(1-((4-oxo-3-(6-(trifluoromethyl)pyridin-2-yl)-3,4-dihydroquinazolin-6-yl)methyl)piperidin-4-yl)isoindolin-2-yl)piperidine-2,6-dione] | 5 to 25 | 
17 | O=C1CCC(N2Cc3c(ccc(C4CCN(Cc5ccc6ncn(-c7ccccn7)c(=O)c6c5)CC4)c3F)C2=O)C(=O)N1 (stereo not drawn) [Compound 85, 3-(4-fluoro-1-oxo-5-(1-((4-oxo-3-(pyridin-2-yl)-3,4-dihydroquinazolin-6-yl)methyl)piperidin-4-yl)isoindolin-2-yl)piperidine-2,6-dione] | 25 to 100 | 
18 | Cc1ccc(-n2cnc3ccc(CN4CCC(c5ccc6c(c5)CN(C5CCC(=O)NC5=O)C6=O)CC4)cc3c2=O)cn1 (stereo not drawn) [Compound 69, 3-(5-(1-((3-(6-methylpyridin-3-yl)-4-oxo-3,4-dihydroquinazolin-6-yl)methyl)piperidin-4-yl)-1-oxoisoindolin-2-yl)piperidine-2,6-dione] |  | + +
19 | O=C1CCC(N2Cc3cc(C4CCN(Cc5cn6ccc(-c7ccccc7)cc6n5)CC4)ccc3C2=O)C(=O)N1 (stereo not drawn) [Compound 98, 3-(1-oxo-5-(1-((7-phenylimidazo[1,2-a]pyridin-2-yl)methyl)piperidin-4-yl)isoindolin-2-yl)piperidine-2,6-dione] | 25 to 100 | 
20 | O=C1CCC(N2Cc3cc(C4CCN(Cc5ccc6ncn(-c7cccc(C(F)(F)F)c7)c(=O)c6c5)CC4)ccc3C2=O)C(=O)N1 (stereo not drawn) [Compound 60, 3-(1-oxo-5-(1-((4-oxo-3-(3-(trifluoromethyl)phenyl)-3,4-dihydroquinazolin-6-yl)methyl)piperidin-4-yl)isoindolin-2-yl)piperidine-2,6-dione] | 5 to 25 | 
21 | Cc1ncccc1-n1cnc2ccc(CN3CCC(c4ccc5c(c4)CN(C4CCC(=O)NC4=O)C5=O)CC3)cc2c1=O (stereo not drawn) [Compound 68, 3-(5-(1-((3-(2-methylpyridin-3-yl)-4-oxo-3,4-dihydroquinazolin-6-yl)methyl)piperidin-4-yl)-1-oxoisoindolin-2-yl)piperidine-2,6-dione] | < 5 | 
22 | O=C1CCC(N2Cc3cc(C4CCN(Cc5ccc6cc(-c7ccccn7)nn6c5)CC4)ccc3C2=O)C(=O)N1 (stereo not drawn) [Compound 92, 3-(1-oxo-5-(1-((2-(pyridin-2-yl)pyrazolo[1,5-a]pyridin-6-yl)methyl)piperidin-4-yl)isoindolin-2-yl)piperidine-2,6-dione] | 5 to 25 | 
23 | O=C1CCC(N2Cc3cc(C4CCN(Cc5ccc6ncn(-c7cccnc7)c(=O)c6c5)CC4)ccc3C2=O)C(=O)N1 (stereo not drawn) [Compound 67, 3-(1-oxo-5-(1-((4-oxo-3-(pyridin-3-yl)-3,4-dihydroquinazolin-6-yl)methyl)piperidin-4-yl)isoindolin-2-yl)piperidine-2,6-dione] | 5 to 25 | 
24 | O=C1CCC(N2Cc3cc(C4CCN(Cc5ccc6ncn(-c7cncc(F)c7)c(=O)c6c5)CC4)ccc3C2=O)C(=O)N1 (stereo not drawn) [Compound 75, 3-(5-(1-((3-(5-fluoropyridin-3-yl)-4-oxo-3,4-dihydroquinazolin-6-yl)methyl)piperidin-4-yl)-1-oxoisoindolin-2-yl)piperidine-2,6-dione] | 25 to 100 | 
